Key:
herpes simplex = conditions: cited from earlier work
vaccinia viruses = conditions: cited from earlier work
[1] = system: MHC Class I, TAP-1, LMP2, MHC Class II, invariant chain, HLA-DM, 90K tumor-associated immunostimulator; assay: Drug suppression of ds polynucleotide-induced MHC and antigen-presenting gene expression in FRTL-5 cells (Northern); type: cell-based, rat; conditions: for ability of dsDNA to increase MHC Class I, TAP-1, LMP2, MHC Class II, invariant chain, HLA-DM, and 90K gene expression / ability of dsRNA to increase MHC Class I, TAP-1, LMP2, MHC Class II, invariant chain, HLA-DM, and 90K gene expression: FRTL-5 cells with TSH (6H5) or without TSH (5H5), 48 hours pretreatment, compound 10 0.5 mM, MMI 5 mM; for ability of dsDNA to increase MHC Class I, TAP-1, LMP2, MHC Class II, invariant chain, HLA-DM, and 90K gene expression: 2-mercaptoimidazole 5 mM, 5 ug dsDNA; for ability of dsRNA to increase MHC Class I, TAP-1, LMP2, MHC Class II, invariant chain, HLA-DM, and 90K gene expression: 5 ug dsRNA; for dsDNA or dsRNA transfection efficiency: FRTL-5 cells, drug-treated
[2] = system: MHC Class I and Class II gene expression; conditions: cited from earlier work
HUVEC cells = assay: Drug suppression of ds DNA or RNA effect in endothelia (HUVEC) cells; type: cell-based, human
Source text: (§1) In this experiment (FIG. 6), cells were pretreated with MMI and compound 10 for 2 days before tranfection. […] The effect was therefore not thyroid cell restricted.

mouse dendritic cells = assay: Drug suppression of ds DNA or RNA effect in mouse dendritic cells; type: cell-based
Source text: as §1

human fibroblasts = assay: Drug suppression of ds DNA or RNA effect in human fibroblasts; type: cell-based
Source text: as §1

FRTL-5 rat thyroid cells = assay: DNA staining and cell cycle analysis (FACS) of FRTL-5 cells; type: cell-based; conditions: for cell cycle arrest: 5H medium 6 days then 6H medium (TSH 1×10^−10M), 5 mM methimazole or 0.5 mM compound 10; for percentage of cells in S + G2/M phase: Methimazole 5 mM, Compound 10 0.5 mM; for action of the ds nucleic acids on cell cycle progression: Table 2 experiment, 4H medium; for effect of ds nucleic acids on growth: summary statement
Protocol: Cells were diploid and between their 5th and 25th passage. Fresh medium was added every 2 or 3 days and cells were passaged every 7-10 days. In some experiments, as noted, cells were grown to near confluency in 6H medium then maintained in 5H medium (which contains no TSH) or 4H medium (with no TSH and no insulin) for 6-8 days before experiments were initiated. Treatment with 5H or 4H medium synchronizes the cells by piling them up in G0/G1 (A. Hirai, et al., J. Biol. Chem. 272: 13-16 (1997); Y. Noguchi, et al., J. Biol. Chem. 273: 3649-3653 (1998)).
DNA Staining and Cell Cycle Analysis—The procedure used was a modification of that described (P. Smerdely, et al., Endocrinology 133: 2403-2406 (1993)). It used the Cycle TEST PLUS DNA Reagent Kit (Becton Dickinson, San Jose, Calif.); and FACS analysis was performed according to the manufacturer's instructions. Briefly, 5×10^5 cells were incubated with 250 T1 of Solution A (trypsin buffer) for 10 min at room temperature, then 200 T1 of Solution B (trypsin inhibitor and ribonuclease A buffer) was added and further incubated for 10 min. Cold Solution C (propidium iodide stain solution) was added and incubated for 10 min at 4° C. in the dark. FACS analysis was performed using FACScan (Becton Dickinson, San Jose, Calif.). Each analysis was performed in triplicate on cells from 3 different plates; the histogram had at least 10,000 events and a coefficient of variation less than 5%.
In the experiment above, there was a minimal direct methimazole effect on the cell cycle because the cells were maintained in 4H medium without insulin; methimazole action requires insulin (O. Isozaki, et al., Mol. Endocrinol, 3: 1681-1692 (1989); O. Isozaki, et al., Endocrinology 128: 3113-3121 (1991)). […] In this experiment, FRTL-5 cells were grown to near confluency in 6H medium, then shifted to 5H medium without TSH for 6 days. The experiments were initiated by returning the cells to 6H medium to reinitiate the cell cycle. Cells were treated with 5 mM methimazole and transfected or not with dsDNA or dsRNA. After 36 hours they were subjected to cell cycle analysis. […] In this experiment, FRTL-5 cells were grown to near confluency in 6H medium, then shifted to 5H medium without TSH for 6 days. The experiments were initiated by returning the cells to 6H medium to reinitiate the cell cycle. Cells were treated with 0.5 mM 5-phenylmethimazole (compound 10) and transfected or not with dsDNA or dsRNA. After 36 hours they were subjected to cell cycle analysis.

female NOD mice = conditions: cited from earlier work
female (NZBxNZW)F1 mice = conditions: cited from earlier work
[3] = Control (no ds nucleic acid), FRTL-5 cells 6 days in 4 H medium without insulin or TSH
[4] = transfected with dsDNA, FRTL-5 cells 6 days in 4 H medium
[5] = transfected with dsRNA, FRTL-5 cells 6 days in 4 H medium

Compound | ability of dsDNA to increase MHC Class I, TAP-1, LMP2, MHC Class II, invariant chain, HLA-DM, and 90K gene expression [1] | activity as antimmune drug [2] | dsDNA or dsRNA transfection efficiency [1] | cell cycle arrest (FRTL-5 rat thyroid cells; 36 hours) | percentage of cells in S + G2/M phase (FRTL-5 rat thyroid cells; [3]) | action of the ds nucleic acids on cell cycle progression (FRTL-5 rat thyroid cells) | effect of ds nucleic acids on growth (FRTL-5 rat thyroid cells) | percentage of cells in S + G2/M phase (FRTL-5 rat thyroid cells; [4]) | percentage of cells in S + G2/M phase (FRTL-5 rat thyroid cells; [5]) | also measured
1,3-dimethyl-4-phenylimidazoline-2-thione |  |  |  |  |  |  |  |  |  | antiviral properties (herpes simplex): antiviral properties; antiviral properties (vaccinia viruses): antiviral properties
Sc1ncc[nH]1 [2-mercaptoimidazole, reference compound] | no effect | inactive |  |  |  |  |  |  |  | 
Cn1c(-c2ccccc2)c[nH]c1=S [Compound 10, 5-phenylmethimazole] | significantly decreases | most active | does not affect | no such effect | 10.5% | inhibit | does not | 11.0% | 4.5% | ability of dsDNA to increase MHC Class I, TAP-1, LMP2, MHC Class II, invariant chain, HLA-DM, and 90K gene expression ([1]; listed as compound 10): better than 5 mM MMI; ability of dsRNA to increase MHC Class I, TAP-1, LMP2, MHC Class II, invariant chain, HLA-DM, and 90K gene expression [1]: decreases; ability of dsRNA to increase MHC Class I, TAP-1, LMP2, MHC Class II, invariant chain, HLA-DM, and 90K gene expression ([1]; listed as compound 10): better than MMI; expression of MHC and antigen-presenting genes, coincident transfection and treatment ([1]; no pretreatment): resulted in suppression; effect on cells transfected with double strand DNA or RNA (HUVEC cells): similarly effective; effect on cells transfected with double strand DNA or RNA (mouse dendritic cells): similarly effective; effect on cells transfected with double strand DNA or RNA (human fibroblasts): similarly effective; effect on ds nucleic acid effects on cell cycle (FRTL-5 rat thyroid cells; 5H then 6H medium, 0.5 mM compound 10, 36 hours): no effect; development of Diabetes (female NOD mice): suppress the development; development of systemic lupus erythematosus (SLE) (female (NZBxNZW)F1 mice): suppress the development; potency relative to MMI [2]: 10- to 100 fold
Cn1cc[nH]c1=S [Methimazole, methimazole, reference compound] | INHIBIT |  | does not affect | arrest in the G2/M1 phase | 6.3% | inhibit | counteracts | 11.4% | 7.4% | 

From patent US20050036993A1, “Immune activation by double-stranded polynucleotides” (priority 1998, published 2005)
